Results taken from US20080058324A1, “Alpha-Keto Carbonyl Calpain Inhibitors” (SANTHERA PHARMACEUTICALS (SCHWEIZ) AG, priority 2004, published 2008).

Experiments:
20S Proteasome = target: T1, 20S Proteasome (Oryctolagus cuniculus, UniProt G1T4Q9); experiment: 20S Proteasome Assay; type: biochemical, Rabbit; conditions: read-out: 20S Prot IC50
T1 sequence (G1T4Q9 60-263): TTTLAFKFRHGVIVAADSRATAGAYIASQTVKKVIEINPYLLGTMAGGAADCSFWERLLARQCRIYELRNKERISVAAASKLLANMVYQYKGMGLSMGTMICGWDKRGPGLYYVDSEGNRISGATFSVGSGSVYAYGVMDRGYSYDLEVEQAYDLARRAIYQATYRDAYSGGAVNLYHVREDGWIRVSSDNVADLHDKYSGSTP
Method: 25 μl of a reaction buffer containing 400 μM of the fluorogenic substrate Suc-Leu-Leu-Val-Tyr-AMC (Bachem) are dispensed per well of a white microtiter plate. Test compounds dissolved in 0.5 μl DMSO are added. To start the reaction; 25 μl of reaction buffer containing 35 ng of enzyme (20S Proteasome, Rabbit, Calbiochem) are added. The increase in fluorescence (excitation at 360 nm; emission at 440 nm) is measured over 30 min at 30° C. at 30″. The IC50's are then determined from the slopes.

human μ-calpain = target: T2, human μ-calpain (Homo sapiens, UniProt P07384); experiment: Enzymatic Calpain Inhibition Assay; type: biochemical; conditions: read-out: Calp I IC50
T2 construct: purchased Calbiochem
T2 sequence (P07384 1-714): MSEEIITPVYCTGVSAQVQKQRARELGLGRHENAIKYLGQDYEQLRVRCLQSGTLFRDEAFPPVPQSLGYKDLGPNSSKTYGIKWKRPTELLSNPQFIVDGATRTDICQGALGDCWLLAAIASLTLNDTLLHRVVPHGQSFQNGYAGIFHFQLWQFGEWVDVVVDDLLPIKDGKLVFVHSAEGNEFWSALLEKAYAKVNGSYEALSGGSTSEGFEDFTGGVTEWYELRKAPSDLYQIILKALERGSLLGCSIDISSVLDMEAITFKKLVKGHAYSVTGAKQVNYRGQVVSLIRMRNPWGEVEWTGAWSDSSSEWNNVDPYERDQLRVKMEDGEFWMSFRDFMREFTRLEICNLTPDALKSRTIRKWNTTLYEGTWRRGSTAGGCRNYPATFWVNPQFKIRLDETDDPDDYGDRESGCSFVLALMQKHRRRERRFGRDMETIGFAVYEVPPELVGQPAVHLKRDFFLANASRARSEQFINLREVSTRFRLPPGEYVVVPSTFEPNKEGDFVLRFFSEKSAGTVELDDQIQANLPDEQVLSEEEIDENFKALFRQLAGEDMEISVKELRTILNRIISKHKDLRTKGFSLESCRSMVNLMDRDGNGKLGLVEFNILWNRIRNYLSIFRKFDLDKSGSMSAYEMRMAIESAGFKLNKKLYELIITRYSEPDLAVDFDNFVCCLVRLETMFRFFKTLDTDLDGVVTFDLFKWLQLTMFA
T2 sequence (P04632 1-268 partner): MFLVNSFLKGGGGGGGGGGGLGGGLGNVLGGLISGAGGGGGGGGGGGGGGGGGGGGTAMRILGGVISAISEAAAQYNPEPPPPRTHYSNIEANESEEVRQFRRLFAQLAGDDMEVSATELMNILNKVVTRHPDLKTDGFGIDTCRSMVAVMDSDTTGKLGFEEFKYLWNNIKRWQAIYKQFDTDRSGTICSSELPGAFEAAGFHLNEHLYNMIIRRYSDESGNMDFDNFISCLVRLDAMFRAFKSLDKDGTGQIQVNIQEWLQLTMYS
Method: The Ki value was also determined in some cases. These criteria were used to measure the inhibitory effect of the compounds (I) on calpain I, calpain II and cathepsin B.
The inhibitory properties of calpain inhibitors are tested in 100 μl of a buffer containing 100 mM imidazole pH 7.5, 5 mM L-Cystein-HCl, 5 mM CaCl2, 250 μM of the calpain fluorogenic substrate Suc-Leu-Tyr-AMC (Sigma) (Sasaki et al., J. Biol. Chem., 1984, 259, 12489-12949) dissolved in 2.5 μl DMSO and 0.5 μg of human μ-calpain (Calbiochem). The inhibitors dissolved in 1 μl DMSO are added to the reaction buffer. The fluorescence of the cleavage product 7-amino-4-methylcoumarin (AMC) is followed in a SPECTRAmax GEMINI XS (Molecular Device) fluorimeter at λex=360 nm and λem=440 nm at 30° C. during 30 min at intervals of 30 sec in 96-well plates (Greiner). The initial reaction velocity at different inhibitor concentrations is plotted against the inhibitor concentration and the IC50 values determined graphically.

[1] = system: cellular calpains in C2C12 myoblasts; experiment: Calpain Inhibition Assay in C2C12 Myoblasts; type: cell-based; conditions: read-out: Calp I IC50 Myoblast
Method: This assay is aimed at monitoring the ability of the substance to inhibit cellular calpains. C2C12 myoblasts are grown in 96-well plates in growth medium (DMEM, 20% foetal calf serum) until they reach confluency. The growth medium is then replaced by fusion medium (DMEM, 5% horse serum). 24 hours later the fusion medium is replaced by fusion medium containing the test substances dissolved in 1 μl DMSO. After 2 hours of incubation at 37° C. the cells are loaded with the calpain fluorogenic substrate Suc-Leu-Tyr-AMC at 400 μM in 50 μl of a reaction buffer containing 135 mM NaCl; 5 mM KCl; 4 mM CaCl2; 1 mM MgCl2; 10 mM Glucose; 10 mM HEPES pH 7.25 for 20 min at room temperature. The calcium influx, necessary to activate the cellular calpains, is evoked by the addition of 50 μl reaction buffer containing 20 μM of the calcium ionophore Br-A-23187 (Molecular Probes). The fluorescence of the cleavage product AMC is measured as described above during 60 min at 37° C. at intervals of 1 min. The IC50 values are determined as described above. Comparison of the IC50 determined in the enzymatic calpain inhibition assay to the IC50 determined in the C2C12 myoblasts calpain inhibiton assay, allows to evaluate the cellular uptake or the membrane permeability of the substance.

[2] = system: experimental muscular dystrophy in hamster; conditions: Journal of Pharmacobiodynamics, 1987, 10, 678; cited from earlier work

Structure (SMILES)	IC50 (20S Proteasome) [nM]	IC50 (human μ-calpain) [nM]	IC50 [1] [nM]	melting point [°C]	life-prolonging effect [2]
CCNC(=O)C(=O)C(Cc1ccc(Cl)cc1)NC(=O)C(NC(=O)C(Cc1ccccc1)NC(=O)CCc1cccs1)C(C)C (centres unmarked) [Example 3]	42	24	20	244 to 246	–
CCOC(=O)[C@H]1O[C@@H]1C(=O)N[C@@H](CC(C)C)C(=O)NCCC(C)C [Example E-64-d]	–	–	–	–	life-prolonging effect
